Assay results as given in PubChem BioAssay (NCI).
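Exposure lasted 48 hours, with cells grown in 96-well plates and compounds tested at five concentrations. TGI: total growth inhibition.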

What was measured:
Assay in all cases: NCI anticancer screen, dose series, 48 h
NCI-H226 lung = tested on: NCI-H226 lung
HOP-62 NSCLC = tested on: HOP-62 NSCLC
SW-620 colon = tested on: SW-620 colon
OVCAR-5 ovarian = tested on: OVCAR-5 ovarian
EKVX NSCLC = tested on: EKVX NSCLC
786-0 renal = tested on: 786-0 renal
SF-268 CNS = tested on: SF-268 CNS
HL-60(TB) leukemia = tested on: HL-60(TB) leukemia
SN12C renal = tested on: SN12C renal
HT29 colon = tested on: HT29 colon
SNB-75 CNS = tested on: SNB-75 CNS
KM12 colon = tested on: KM12 colon
MDA-MB-231 breast = tested on: MDA-MB-231 breast
HCC-2998 colon = tested on: HCC-2998 colon
NCI-H23 lung = tested on: NCI-H23 lung
MDA-N = tested on: MDA-N

Structure (SMILES) | TGI (NCI-H226 lung) [µM] | TGI (HOP-62 NSCLC) [µM] | TGI (SW-620 colon) [µM] | TGI (OVCAR-5 ovarian) [µM] | TGI (EKVX NSCLC) [µM] | TGI (786-0 renal) [µM] | TGI (SF-268 CNS) [µM] | TGI (HL-60(TB) leukemia) [µM] | TGI (SN12C renal) [µM] | TGI (HT29 colon) [µM] | TGI (SNB-75 CNS) [µM] | TGI (KM12 colon) [µM] | TGI (MDA-MB-231 breast) [µM] | TGI (HCC-2998 colon) [µM] | TGI (NCI-H23 lung) [µM] | TGI (MDA-N) [µM]
NC(CCCNc1cccc(O)c1)C(=O)O (stereo unspecified) | > 100 | > 100 | > 100 | > 100 | > 100 | > 100 | > 100 | > 100 | > 100 | > 100 | > 100 |  |  |  |  | 
COc1cc(C2c3[nH]c4ccc(F)cc4c3C[C@H]3COC(=O)N23)cc(OC)c1O (stereo partly specified) | 32.3 | 21.6 |  | 49.2 | 92.3 | 26 | 64.5 | 38.1 | 35.5 | 26.8 | 8.84 | 26.3 | 47.4 | 28.4 | 18.5 | 
COc1cc2c(oc(=O)c3cc4ccoc4c(OC)c32)c2cccc(O)c12 | > 100 | > 100 | > 100 | > 100 | > 100 | > 100 | > 100 | > 100 | > 100 | > 100 | > 100 | > 100 |  | > 100 | > 100 | 
CC(C)C(Sc1nc(-c2ccccc2)c(-c2ccccc2)[nH]1)C(=O)N/N=C/c1ccc([N+](=O)[O-])cc1 (stereo unspecified) | 40.3 | 37.8 | 37.2 | 44.8 | 65.6 | 32.1 | 40 | 33.5 | 25.9 | 23.2 | 42.3 | 24.5 |  |  | 55.6 | 
COc1cc(CNC(=O)[C@H](Cc2ccc(O)cn2)NC(C)=O)cc(OC)c1 | > 100 | > 100 | > 100 | > 100 | > 100 | > 100 | > 100 | > 100 | > 100 | > 100 |  | > 100 |  | > 100 | > 100 | > 100
COP(=O)(OC)C(O)/C=C(\Cl)c1ccc(Cl)cc1 (stereo unspecified) | > 100 | > 100 | > 100 | > 100 | > 100 | 39.3 | > 100 | > 100 | > 100 | > 100 | > 100 | > 100 | > 100 |  | 50.8 | 
CNC(=O)c1n[nH]n(Cc2ccccc2)c1=S | > 100 | > 100 | > 100 | > 100 | > 100 | > 100 |  |  | > 100 | > 100 | > 100 | > 100 | > 100 | > 100 | > 100 | > 100
COc1cc(S(=O)(=O)Nc2ccc(-c3csc(N4C(=O)C(C)SC4c4ccccc4O)n3)cc2)ccc1Cl (stereo unspecified) | > 100 | > 100 | > 100 | > 100 | > 100 | > 100 | 49.9 | 56.4 | > 100 | > 100 | 95.7 | > 100 |  |  | > 100 | > 100
CC(C)[Si](OCC1CC(C[C@H]2CC(C[C@H]3C[C@@H](CO[Si](C(C)C)(C(C)C)C(C)C)OC(C)(C)O3)OC(C)(C)O2)OC(C)(C)O1)(C(C)C)C(C)C (stereo partly specified) | > 100 | > 100 | > 100 | > 100 | > 100 | > 100 | > 100 | > 100 |  | > 100 | > 100 | > 100 |  | > 100 | > 100 | 
CC(=O)[O-].CC(=O)[O-].O=C(N/N=C/c1cc(Cl)cc(Cl)c1[OH2+])c1ccncc1.[Zn+2] | > 100 | > 100 | > 100 | > 100 | > 100 | > 100 | > 100 | > 100 | > 100 |  | > 100 | > 100 |  | > 100 | > 100 | 
O=C1c2ccccc2C(=O)C2C3c4ccccc4C(c4ccccc43)C12 (stereo unspecified) | > 100 | > 100 | > 100 |  | 68.5 | 18.9 | 34.9 |  | 61.5 | 79.4 | 42.7 | > 100 |  | 88.8 | > 100 | 
CCn1c(-c2ccccc2)nc2c1C(=O)c1ccccc1C2=O | 71.6 | > 100 | > 100 | 82.8 |  | > 100 |  | > 100 | > 100 | 30.3 |  | 73.8 |  | 51.4 | > 100 | 36.9
O=C(Nc1ccccc1)Nn1c(-c2cccs2)nc2ccc(I)cc2c1=O | > 100 | > 100 | > 100 | > 100 | 58.6 | > 100 | > 100 | 21.8 | > 100 | 84.7 | 25.6 | 94.8 |  | 55.3 | > 100 | 74.6
C=CCOC(=O)CCCCCCCCCCCCCCCOC(=O)c1c(CCC[C@@H](C)O[Si](C)(C)C(C)(C)C)nc(=O)n2c1CC[C@H]2CC1(CC/C=C\[C@H](CC)O[Si](C(C)C)(C(C)C)C(C)C)OCCO1 | > 100 | > 100 |  | > 100 | > 100 | 77.2 | > 100 |  | > 100 |  | > 100 | > 100 | 54.3 | > 100 | > 100 | > 100
OCCCCn1cc(Cn2ncc3c(SCc4ccccc4)ncnc32)nn1 | > 100 | > 100 | 90.9 | > 100 | > 100 | > 100 | > 100 |  | > 100 | > 100 | > 100 | > 100 | > 100 | > 100 | > 100 | 39.2
c1nc(SSc2ncnc3nc[nH]c23)c2[nH]cnc2n1 | > 100 | > 100 | > 100 | > 65.2 | > 100 | > 100 | > 29.2 | > 100 | > 73.3 | > 100 | > 100 | > 44.1 | > 56.5 |  | 9.54 | 

Structure (SMILES) | TGI (NCI-H226 lung) [µM] | TGI (HOP-62 NSCLC) [µM] | TGI (SW-620 colon) [µM] | TGI (OVCAR-5 ovarian) [µM] | TGI (EKVX NSCLC) [µM] | TGI (786-0 renal) [µM] | TGI (SF-268 CNS) [µM] | TGI (HL-60(TB) leukemia) [µM] | TGI (SN12C renal) [µM] | TGI (HT29 colon) [µM] | TGI (SNB-75 CNS) [µM] | TGI (KM12 colon) [µM] | TGI (MDA-MB-231 breast) [µM] | TGI (HCC-2998 colon) [µM] | TGI (NCI-H23 lung) [µM] | TGI (MDA-N) [µM]
c1cc2cc(c1)CN1CCNCCN(CCNCC1)Cc1cccc(c1)CN1CCNCCN(CCNCC1)C2 |  | > 100 | > 100 | > 100 | > 100 | > 100 | > 100 |  | > 100 | > 100 | > 100 | > 100 | > 100 | > 100 | > 100 | > 100
O=C1N(CN2CCOCC2)CN(CN2CCOCC2)C(=O)N1Cc1ccccc1 | > 100 | > 100 | 54.9 | > 100 | > 100 | 71.8 | 53.1 |  | 48.6 | 39.9 | 72.5 | 57.4 | 69.6 | > 100 | 38.9 | 33.3
COc1ccc2c[n+](C)c3c4cc(OC)c(OC)cc4ccc3c2c1 | 35.1 | 27.7 | 16.4 | 34.4 | 54.7 | 15.5 | 13.2 | 32.4 | 12.6 | 23.1 | 15.7 | 3.85 | 18.3 | 34.3 | 13.6 | 
O=C(O)C(Cc1cnc[nH]1)N=Cc1nc(-c2ccccc2)oc1O (stereo unspecified) | > 100 | > 100 | > 100 | > 100 | > 100 | > 100 | > 100 | > 100 | > 100 | > 100 | > 100 |  |  | > 100 | > 100 | 
COC(=O)c1cc(-c2ccc(-c3ccc(O)cc3)cc2)cc(-c2ccc(-c3ccc(O)cc3)cc2)c1 | 32.6 | 27.7 | 21.9 | 29.1 | 25.2 | 18.9 | 17.8 |  | 27 |  | 27.8 | 6.82 | 71.3 | 33 | 21 | 23
C[C@@H]1OC(=O)C[C@H]2CC(=O)N(CCC3CN(S(=O)(=O)C(F)(F)F)c4ccc(Cc5ccc6c(c5)C(CCN5C[C@H]7[C@@H](CC(=O)O[C@H]7C)CC5=O)CN6S(=O)(=O)C(F)(F)F)cc43)C[C@@H]21 (stereo partly specified) | > 100 | > 100 | > 100 | > 100 | > 100 | > 100 | > 100 |  |  |  | > 100 | > 100 | > 100 | > 100 | > 100 | 
CN(C)CS/C(N)=N\C(O)C(Cl)(Cl)Cl (stereo unspecified) | > 100 | > 100 | > 100 | > 100 | > 100 | > 100 | > 100 |  | > 100 | > 100 | > 100 | > 100 | > 100 | > 100 | > 100 | > 100
Cc1ccc(S(=O)C[C@@]2(C(F)F)NC(=O)NC2=O)cc1 (stereo partly specified) | > 100 | > 100 | > 100 | > 100 | > 100 | > 100 | > 100 | > 100 |  | > 100 | > 100 | > 100 | > 100 | > 100 | > 100 | 
COc1ccccc1-c1nc2ccccc2c(=O)[nH]1 | > 100 | > 100 | > 100 | > 100 | > 100 | > 100 | > 100 |  | > 100 |  | > 100 | > 100 | > 100 | > 100 | > 100 | > 100
CCN(CC)CCNc1ccc2ncn3c4c(OC)cccc4c(=O)c1c23 | 20.8 | 98 | 15.9 |  | 17.7 | 75 | 17.6 |  | 17.7 | 36.1 | 24.5 | 17.4 | 25.6 | 18.6 | 24.5 | 17.1
CC(=O)N1C(C(=O)NNc2ccccc2)CSC1c1ccccc1 (stereo unspecified) | > 100 | > 100 | > 100 | > 100 | > 100 | > 100 | > 100 |  | > 100 | > 100 | > 100 | > 100 | > 100 | > 100 | > 100 | > 100
CC(C)CCNC(=O)c1ccc(CNC(=O)/C=C/c2csc(-c3ccccc3)n2)cc1 | > 100 | 37.4 | > 100 | > 100 | > 100 | > 100 | > 100 |  | > 100 | > 100 | 41.8 | > 100 | > 100 | > 100 | > 100 | > 100
Nc1ccc(C(=O)NN2C(=O)C(Cl)C2c2ccc([N+](=O)[O-])cc2)cc1 (stereo unspecified) | 34.9 | 23.2 | 26.2 | 41.6 | 24.4 | 16.6 | 12.2 | 4.65 | 30 | 32.6 | 24.5 | 23.9 |  | 21.2 | 35.6 | 
C[N+](C)(C)C1(C(=O)[O-])CC1 | > 100 | > 100 | > 100 | > 100 | > 100 | > 100 | > 100 | > 100 | > 100 | > 100 | > 100 |  |  | > 100 | > 100 | > 100
NC(CCCCN=Cc1nc(-c2ccccc2)oc1O)C(=O)O (stereo unspecified) | > 100 | > 100 | > 100 | > 100 | > 100 | > 100 | > 100 | > 100 | > 100 | > 100 | > 100 |  |  | > 100 | > 100 | 
